Measurements published in paper PMC11480411, “Mucosal sugars delineate pyrazine vs pyrazinone autoinducer signaling in Klebsiella oxytoca” (Nature Communications, 2024).
Where “and” joins values, the source holds several entries; their conditions need not be identical. Identical values can stand only once.

Columns and labels:
[1] = tested on: leup operon (leupeptin BGC) promoter in K. oxytoca ATCC 8724; assay: GFP-based transcriptional reporter for the leup operon; assay type: cell-based, Klebsiella oxytoca; conditions: carbohydrate screen, M9 + casamino acid + 0.4% indicated sugar, 30 °C, 24 h
Text: We previously examined a panel of 84 clinical K. oxytoca isolates (including recently renamed Klebsiella michiganensis isolates) for the presence of either the leup operon or npsB, an NRPS of the tilimycin/tilivalline gene cluster. […] While the roles of tilivalline and tilimycin in hemorrhagic colitis are well studied[8],[9], the operon for leupeptin biosynthesis is “silent” in K. oxytoca under typical laboratory culture conditions (i.e., leupeptin production is undetectable). Therefore, our study commenced by exploring growth conditions required to trigger leupeptin biosynthesis in K. oxytoca. To achieve this, we generated a green fluorescent protein (GFP)-based reporter system to monitor leup transcription in K. oxytoca ATCC 8724 (recently renamed as Klebsiella michiganensis (ATCC 8724), Fig. 1a). We utilized λ-red recombineering techniques[38] to replace the first biosynthetic gene (leupA) of the leupeptin BGC with a GFP-spectinomycin resistance cassette. […] Consequently, conditions that elicit transcription of the leupeptin BGC can be monitored by GFP fluorescence intensity.
5 mL of the leupeptin reporter strain was cultured aerobically in 10 g/L of LB (Becton Dickinson), yeast extract, GAM (HiMedia Laboratories), horse liver extract (HiMedia Laboratories), malt extract (VWR), meat extract (HiMedia Laboratories), YPD (Dot Scienticifc), brain heart infusion (Becton Dickinson), porcine mucin (Sigma-Aldrich, M1778), clostridial (Becton Dickinson), TSB (VWR), or casamino acid supplemented (5 g/L, VWR) M9 minimal salts (MP Biomedicals) at 30 °C for 24 h at 250 rpm. Cultures were lysed via sonication, centrifuged, and 150 µL of the supernatants were aliquoted into black well clear bottom 96 well plates. GFP fluorescence measurements were performed on a BioTek Synergy H1 plate reader with an excitation wavelength of 488 nm and an emission wavelength of 525 nm. For the carbohydrate screen, the leupeptin reporter strain was cultured in M9 minimal medium (MPbio) supplemented with casamino acid (5 g/L, VWR) and 0.4% indicated sugar aerobically at 30 °C for 24 h at 250 rpm.

HRH1 = target: T1, HRH1 (Homo sapiens, UniProt P35367); assay: PRESTO-Tango GPCR screen and dose-response; assay type: cell-based; conditions: for HRH1 dose-response raw reporter signal (Fig. 5b source data): replicate wells
T1 construct: expressed in transfected cells; host or cells: HTLA cells (HEK293 line stably expressing β-arrestin-TEV and tTA-Luciferase)
T1 sequence (P35367 whole entry): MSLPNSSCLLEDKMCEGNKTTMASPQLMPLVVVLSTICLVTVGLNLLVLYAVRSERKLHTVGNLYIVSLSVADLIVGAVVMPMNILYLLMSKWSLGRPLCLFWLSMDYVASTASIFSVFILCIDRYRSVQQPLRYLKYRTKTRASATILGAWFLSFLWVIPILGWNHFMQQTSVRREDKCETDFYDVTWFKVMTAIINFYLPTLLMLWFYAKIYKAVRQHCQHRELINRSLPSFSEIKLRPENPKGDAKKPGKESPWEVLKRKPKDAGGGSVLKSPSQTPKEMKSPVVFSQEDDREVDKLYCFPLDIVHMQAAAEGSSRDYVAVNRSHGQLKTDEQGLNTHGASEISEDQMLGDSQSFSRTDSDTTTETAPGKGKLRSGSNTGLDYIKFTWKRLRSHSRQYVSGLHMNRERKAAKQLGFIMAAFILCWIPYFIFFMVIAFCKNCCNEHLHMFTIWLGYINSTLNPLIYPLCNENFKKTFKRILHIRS
Procedure: (§1) The PRESTO-Tango analyses were performed as previously published. Briefly, HTLA cells, a HEK293 cell line that stably expresses β-arrestin-TEV and tTA-Luciferase (a kind gift from Gilad Barnea, Brown University), were plated in 96-well tissue culture plates (Eppendorf) in DMEM containing 10% FBS and 1% Penicillin/Streptomycin. One day after plating (after reaching approximately 90% confluence), 200 ng per well GPCR-Tango plasmids[37] in 20 μL DMEM were individually mixed with 400 ng polyethylenimine (Polysciences) in an equal volume of DMEM and incubated for 20 min at room temperature before adding the transfection mixture to the HTLA cells. 16-24 h after transfection, medium was replaced with 180 μL fresh DMEM containing 1% Penicillin/Streptomycin and 10 mM HEPES and 20 μL of 3 or 3-Homo to reach a final concentration of 100 μM. Supernatants were aspirated 20 h after stimulation and 50 μl per well of Bright-Glo solution (Promega) diluted 20-fold with PBS containing 20 mM HEPES was added into each well. After 15 min incubation at room temperature, luminescence was quantified using a Spectramax i3x microplate reader (Molecular Devices). Activation fold for each sample was calculated by dividing relative luminescence units (RLU) for each condition by RLUs from PBS control. Dose response curves of each chemical were performed in a similar way with varying the ligand concentration from 10^−4 M to 10^−15 M.

HRH2 = target: T2, HRH2 (Homo sapiens, UniProt P25021); assay: PRESTO-Tango GPCR screen and dose-response; assay type: cell-based; conditions: for HRH2 dose-response raw reporter signal (Fig. 5b source data): replicate wells
T2 construct: expressed in transfected cells; host or cells: HTLA cells (HEK293 line stably expressing β-arrestin-TEV and tTA-Luciferase)
T2 sequence (P25021 whole entry): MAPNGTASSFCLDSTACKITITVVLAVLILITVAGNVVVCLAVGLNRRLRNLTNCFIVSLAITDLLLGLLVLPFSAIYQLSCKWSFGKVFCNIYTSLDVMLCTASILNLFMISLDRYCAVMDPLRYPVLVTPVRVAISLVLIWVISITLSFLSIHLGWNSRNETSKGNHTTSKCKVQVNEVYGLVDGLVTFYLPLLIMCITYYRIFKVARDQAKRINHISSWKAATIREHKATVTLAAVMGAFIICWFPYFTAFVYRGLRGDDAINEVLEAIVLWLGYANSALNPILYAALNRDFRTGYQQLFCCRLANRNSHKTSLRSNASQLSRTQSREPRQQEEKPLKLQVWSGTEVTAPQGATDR
Procedure: as §1

HRH3 = target: T3, HRH3 (Homo sapiens, UniProt Q9Y5N1); assay: PRESTO-Tango GPCR screen and dose-response; assay type: cell-based; conditions: for HRH3 dose-response raw reporter signal (Fig. 5b source data): replicate wells
T3 construct: expressed in transfected cells; host or cells: HTLA cells (HEK293 line stably expressing β-arrestin-TEV and tTA-Luciferase)
T3 sequence (Q9Y5N1 whole entry): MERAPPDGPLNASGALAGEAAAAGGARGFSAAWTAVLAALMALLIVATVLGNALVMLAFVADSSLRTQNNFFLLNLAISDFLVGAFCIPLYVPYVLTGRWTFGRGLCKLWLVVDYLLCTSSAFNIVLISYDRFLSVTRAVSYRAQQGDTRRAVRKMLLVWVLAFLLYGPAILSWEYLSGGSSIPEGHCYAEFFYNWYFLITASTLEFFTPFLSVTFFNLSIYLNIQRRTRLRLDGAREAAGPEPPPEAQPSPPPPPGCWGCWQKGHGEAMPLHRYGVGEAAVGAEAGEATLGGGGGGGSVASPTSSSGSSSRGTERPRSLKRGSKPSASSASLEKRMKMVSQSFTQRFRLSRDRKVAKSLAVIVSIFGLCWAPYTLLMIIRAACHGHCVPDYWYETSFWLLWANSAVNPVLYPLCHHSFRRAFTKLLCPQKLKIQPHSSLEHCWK
Procedure: as §1

[2] = target: T4, histamine receptor H4 (HRH4) (Homo sapiens, UniProt Q9H3N8); assay: PRESTO-Tango GPCR screen and dose-response; assay type: cell-based; conditions: for HRH4 dose-response raw reporter signal (Fig. 5b source data): replicate wells
T4 construct: expressed in transfected cells; host or cells: HTLA cells (HEK293 line stably expressing β-arrestin-TEV and tTA-Luciferase)
T4 sequence (Q9H3N8 whole entry): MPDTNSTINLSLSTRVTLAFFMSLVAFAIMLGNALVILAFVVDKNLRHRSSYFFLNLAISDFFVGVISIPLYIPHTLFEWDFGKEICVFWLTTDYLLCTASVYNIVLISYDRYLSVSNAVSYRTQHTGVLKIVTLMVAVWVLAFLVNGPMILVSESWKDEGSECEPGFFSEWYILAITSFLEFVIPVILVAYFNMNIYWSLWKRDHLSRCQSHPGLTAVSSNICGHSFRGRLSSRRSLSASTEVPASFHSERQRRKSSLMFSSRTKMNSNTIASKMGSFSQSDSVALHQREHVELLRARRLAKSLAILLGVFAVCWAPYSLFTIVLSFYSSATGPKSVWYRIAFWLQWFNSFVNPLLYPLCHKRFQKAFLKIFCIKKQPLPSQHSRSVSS
Procedure: as §1

SMILES: OC[C@H]1O[C@@H](O[C@H]2[C@H](O)[C@@H](O)C(O)O[C@@H]2CO)[C@H](O)[C@@H](O)[C@H]1O (mixture of isomers) [Lactose]
- GFP fluorescence, GFP Strain + Media ([1]; leup GFP reporter strain): 5276 RFU
- GFP fluorescence, WT + Media ([1]; wildtype K. oxytoca without reporter (background)): 4982 RFU

SMILES: COC(=O)CCc1nc(Cc2ccccc2)c(CCC(=O)O)nc1Cc1ccccc1 [9-Me]
- HRH1 dose-response raw reporter signal (Fig. 5b source data) (HRH1; Log(10)Conc (M) -4): 50545 and 47748
- HRH1 dose-response raw reporter signal (Fig. 5b source data) (HRH1; Log(10)Conc (M) -5): 50057 and 47492
- HRH1 dose-response raw reporter signal (Fig. 5b source data) (HRH1; Log(10)Conc (M) -6): 50434 and 47377
- HRH1 dose-response raw reporter signal (Fig. 5b source data) (HRH1; Log(10)Conc (M) -7): 50075 and 47693
- HRH1 dose-response raw reporter signal (Fig. 5b source data) (HRH1; Log(10)Conc (M) -8): 49488 and 47793
- HRH1 dose-response raw reporter signal (Fig. 5b source data) (HRH1; Log(10)Conc (M) -9): 48159 and 46626
- HRH1 dose-response raw reporter signal (Fig. 5b source data) (HRH1; Log(10)Conc (M) -10): 48713 and 47646
- HRH1 dose-response raw reporter signal (Fig. 5b source data) (HRH1; Log(10)Conc (M) -11): 49358 and 47065
- HRH1 dose-response raw reporter signal (Fig. 5b source data) (HRH1; Log(10)Conc (M) -12): 50278 and 46581
- HRH1 dose-response raw reporter signal (Fig. 5b source data) (HRH1; Log(10)Conc (M) -13): 49874 and 48613
- HRH1 dose-response raw reporter signal (Fig. 5b source data) (HRH1; Log(10)Conc (M) -14): 50243 and 49745
- HRH1 dose-response raw reporter signal (Fig. 5b source data) (HRH1; Log(10)Conc (M) -15): 45927 and 43079
- activity towards HRH1 (HRH1; PRESTO-Tango dose-response): no activity
- HRH2 dose-response raw reporter signal (Fig. 5b source data) (HRH2; Log(10)Conc (M) -4): 83 and 65 and 100
- HRH2 dose-response raw reporter signal (Fig. 5b source data) (HRH2; Log(10)Conc (M) -5): 41 and 50 and 56
- HRH2 dose-response raw reporter signal (Fig. 5b source data) (HRH2; Log(10)Conc (M) -6): 56 and 47 and 32
- HRH2 dose-response raw reporter signal (Fig. 5b source data) (HRH2; Log(10)Conc (M) -7): 65 and 62 and 35
- HRH2 dose-response raw reporter signal (Fig. 5b source data) (HRH2; Log(10)Conc (M) -8): 97 and 47 and 41
- HRH2 dose-response raw reporter signal (Fig. 5b source data) (HRH2; Log(10)Conc (M) -9): 41 and 35 and 77
- HRH2 dose-response raw reporter signal (Fig. 5b source data) (HRH2; Log(10)Conc (M) -10): 38 and 80 and 41
- HRH2 dose-response raw reporter signal (Fig. 5b source data) (HRH2; Log(10)Conc (M) -11): 91 and 32 and 56
- HRH2 dose-response raw reporter signal (Fig. 5b source data) (HRH2; Log(10)Conc (M) -12): 53 and 71 and 59
- HRH2 dose-response raw reporter signal (Fig. 5b source data) (HRH2; Log(10)Conc (M) -13): 38 (2×) and 85
- HRH2 dose-response raw reporter signal (Fig. 5b source data) (HRH2; Log(10)Conc (M) -14): 38 and 65 and 56
- HRH2 dose-response raw reporter signal (Fig. 5b source data) (HRH2; Log(10)Conc (M) -15): 32 and 41 and 83
- activity towards HRH2 (HRH2; PRESTO-Tango dose-response): no activity
- HRH3 dose-response raw reporter signal (Fig. 5b source data) (HRH3; Log(10)Conc (M) -4): 348 and 274 and 324
- HRH3 dose-response raw reporter signal (Fig. 5b source data) (HRH3; Log(10)Conc (M) -5): 112 and 156 and 153
- HRH3 dose-response raw reporter signal (Fig. 5b source data) (HRH3; Log(10)Conc (M) -6): 127 and 174 and 142
- HRH3 dose-response raw reporter signal (Fig. 5b source data) (HRH3; Log(10)Conc (M) -7): 91 and 130 and 165
- HRH3 dose-response raw reporter signal (Fig. 5b source data) (HRH3; Log(10)Conc (M) -8): 168 and 112 and 162
- HRH3 dose-response raw reporter signal (Fig. 5b source data) (HRH3; Log(10)Conc (M) -9): 127 and 103 and 139
- HRH3 dose-response raw reporter signal (Fig. 5b source data) (HRH3; Log(10)Conc (M) -10): 174 and 144 and 115
- HRH3 dose-response raw reporter signal (Fig. 5b source data) (HRH3; Log(10)Conc (M) -11): 162 (2×) and 97
- HRH3 dose-response raw reporter signal (Fig. 5b source data) (HRH3; Log(10)Conc (M) -12): 139 and 168 and 144
- HRH3 dose-response raw reporter signal (Fig. 5b source data) (HRH3; Log(10)Conc (M) -13): 183 and 168 and 153
- HRH3 dose-response raw reporter signal (Fig. 5b source data) (HRH3; Log(10)Conc (M) -14): 183 and 85 and 150
- HRH3 dose-response raw reporter signal (Fig. 5b source data) (HRH3; Log(10)Conc (M) -15): 94 and 115 and 112
- activity towards HRH3 (HRH3; PRESTO-Tango dose-response): no activity
- HRH4 dose-response raw reporter signal (Fig. 5b source data) ([2]; Log(10)Conc (M) -5): 427 and 460
- HRH4 dose-response raw reporter signal (Fig. 5b source data) ([2]; Log(10)Conc (M) -6): 342 and 348
- HRH4 dose-response raw reporter signal (Fig. 5b source data) ([2]; Log(10)Conc (M) -7): 348 and 321
- HRH4 dose-response raw reporter signal (Fig. 5b source data) ([2]; Log(10)Conc (M) -8): 410 and 321
- HRH4 dose-response raw reporter signal (Fig. 5b source data) ([2]; Log(10)Conc (M) -9): 324 and 251
- HRH4 dose-response raw reporter signal (Fig. 5b source data) ([2]; Log(10)Conc (M) -10): 377 and 368
- HRH4 dose-response raw reporter signal (Fig. 5b source data) ([2]; Log(10)Conc (M) -11): 262 and 307
- HRH4 dose-response raw reporter signal (Fig. 5b source data) ([2]; Log(10)Conc (M) -12): 407 and 336
- HRH4 dose-response raw reporter signal (Fig. 5b source data) ([2]; Log(10)Conc (M) -13): 298 and 395
- HRH4 dose-response raw reporter signal (Fig. 5b source data) ([2]; Log(10)Conc (M) -14): 268
- HRH4 dose-response raw reporter signal (Fig. 5b source data) ([2]; Log(10)Conc (M) -15): 215 and 212
- activity towards HRH4 ([2]; PRESTO-Tango dose-response): no activity
